# Test results taken from patent US4242354A, “2-(2-Thenolythio)-propionylglycine: method for its preparation and pharmaceutical formulations containing said compound” (Mediolanum Farmaceutici S.r.L., priority 1978, dated 1980).
# Read-outs that look alike come from different tables or passages of the source.
# Key:
# in vivo [1] = conditions: rat, in vivo
# Protocol: (§1) Hundred-and-forty (140) albino rats, Sprague-Dawley strain, bodyweight 120-135 grams, subdivided into groups each consisting of 5 animals, were used for the investigation. […] For each single compound the LD 50 was assessed according to Litchfield and Wilcoxon on the basis of the mortality rate encountered in the 7 days following the treatment.
# rat = assay: in vivo; conditions: 10 animals per dose
# Protocol: as §1
# [2] = test system: carbon tetrachloride poisoning; assay: Protective activity in the carbon tetrachloride poisoning; type: in vivo, male rats (Sprague-Dawley); conditions: CCl4 0.5 ml/mg sc, 7 days; drugs intramuscularly, (I) 200 and 300 mg/kg, (II) 300 mg/kg
# Protocol: Fifty male rats (Sprague-Dawley, 180-200 grams bodyweight) were used for the investigation, subdivided into 5 groups: one group was given no treatment while the remaining 4 groups were poisoned for 7 consecutive days with CCl4 at the dosage of […] given subcutaneously.
# bromobenzene poisoning = assay: Protective activity in the bromobenzene poisoning; type: in vivo, male rats (Sprague-Dawley); conditions: 300 mg/kg oral, vs investigational compound
# Protocol: Fifty male rats (Sprague-Dawley, 180-200 g bodyweight) were used for the investigation, subdivided into 5 groups, each consisting of 10 animals, given orally the following compounds
# (1) 5 percent gum arabic in tap water
# (2) 5 percent gum arabic in tap water
# (3) 2-(2-thenoylthio)-propionylglycine--200 mg/kg
# (4) 2-(2-thenoylthio)-propionylglycine--300 mg/kg
# Seven days later, the animals of the groups 2-3-4-[…] were given bromobenzene subcutaneously (150 mg/rat) while the remaining group (control) was given an equivalent volume of saline. Still seven days later, 5 of the animals of each group were given Nembutal (25 mg/kg/intraperitoneally), and the sleeping time was calculated.
# The remaining 5 animals of each group were given bromophthalein at the dose of 50 mg intravenously; thirty minutes later, the animals were sacrificed and both the present bromophthalein and SGPT (serum glutamic pyruvic transaminase) were established in the blood.
# mercuric chloride = assay: In vivo protective action against mercurial compounds; set-up: species or system male mice (Swiss strain); conditions: 300 mg/kg ip, mercuric chloride 20 mg/kg ip, mice, 24 hours
# Protocol: Forty male mice (Swiss strain, 22 grams mean bodyweight) were used for the investigation, subdivided into 4 groups treated as follows:
# (1) mercuric chloride, 20 mg/kg/intraperitoneally;
# (4) mercuric chloride 20 mg/kg/intraperitoneally+2-thiopropionylglycine 300 mg/kg/intraperitoneally.
# Deaths occurred were recorded hourly in the first 5 hours, and thereafter after 24 hours.
# [3] = Stability test: physical properties and weight variations on heating; type: physicochemical
# Protocol: (§2) The stability tests were carried out according to the Rogers' nonisothermic method suitably integrated by the evaluation of physical data, melting point, weight variation, and spectrophotometric assay. For each single compound, the tests were performed on a series of samples, with the weight of 100 milligrams, added for the wet tests with 1 ml of distilled water. […] The sample were kept in a thermostat at increasing temperatures, i.e. from 25° to 80° C. […] The temperature, programmed according to the Rogers' formula, resulted to be 40° C. at the end of the first hour, 50° C. at the end of the second hour, 57° C. at the end of the third hour, 63° C. at the end of the fourth hour, 69° C. at the end of the fifth hour, 73° C. at the end of the sixth hour, 77° C. at the end of the seventh hour and, as already specified, 80° C. at the end of the eighth hour.
# Still in Table 5, the sample from 1 to 5 refer, for each of the two compounds, to the dry substance while the samples from 6 to 10 refer to the solution or to the aqueous suspension obtained as above specified.
# (§3) In the case of the wet-treated samples, the final weight was only established on the samples No. 10 brought to dryness at 60° C. under vacuum after an 8-hour heating.
# [4] = Stability test: melting point before and after heating; type: physicochemical
# Protocol: as §2
# The melting point was established in a capillary tube, under identical conditions, on the samples No. 5 after heating for 8 hours in the previously specified conditions, and on the samples No. 10 after heating and evaporation to dryness as previously specified.
# physchem = assay: physchem
# Protocol: as §2, §3
# [5] = Rogers' nonisothermic method: energies of activation, specific velocities, validity periods; type: physicochemical
# Protocol: as §2
# The data shown in Table 7 were worked out according to the Rogers' method, drawing up the values of the energies of activation of the decomposition reactions under dry and wet conditions, the specific rate constants as well as the validity period.
# [6] = Solubility and organoleptic properties; type: physicochemical; conditions: 100 milligrams with 1 ml of distilled water
# mouse [7] = conditions: oral, 10 animals per dose
# mouse [8] = conditions: intravenous, 10 animals per dose
# [9] = background; cited from earlier work
# in vivo [10] = conditions: mouse, po
# in vivo [11] = conditions: mouse, iv
# elderly patients = type: in vivo, man
# Protocol: The drug was assessed, with respect to its mucolytic action, on thirty elderly patients ([…], maximal 87, mean age 72). […] The improvement was assessed on the basis of the following parameters:
# decrease of the daily quantity of sputum;
# decrease of the viscosity of the sputum;
# increase of the Tiffeneau's index;
# improved value of the erythrocyte sedimentation rate.
# A group of twenty patients, in the same mean age, was given for control purposes a known drug such as N-acetylcysteine.
# [12] = sample 1, dry, 1 hour 30 minutes
# [13] = sample 3, dry, 5 hours 15 minutes
# [14] = sample 5, dry, 8 hours, listed as 2-thiopropionylglycine
# [15] = sample 10, wet, 8 hours, brought to dryness
compound,measurement,setting,value
"CC(S)C(=O)NCC(=O)O (centres unmarked) [compound (II), 2-mercaptopropionylglycine, reference compound]",LD50 at 168 h,in vivo [1]; im,1630 mg/kg
same,mortality at 168 h,"in vivo [1]; im, 1500 mg/kg",20%
same,mortality at 168 h,"in vivo [1]; im, 1750 mg/kg",60%
same,mortality at 168 h,"in vivo [1]; im, 2000 mg/kg",100%
same,mortality at 168 h,"in vivo [1]; po, 1500 mg/kg",0%
same,mortality at 168 h,"in vivo [1]; po, 2000 mg/kg",0%
same,mortality at 168 h,"in vivo [1]; po, 2500 mg/kg",20%
same,No. Animals Dead,"rat; intramuscular, 1500 mg/kg",2
same,No. Animals Dead,"rat; intramuscular, 1750 mg/kg",6
same,No. Animals Dead,"rat; intramuscular, 2000 mg/kg",10
same,No. Animals Dead,"rat; oral, 1500 mg/kg",0
same,No. Animals Dead,"rat; oral, 2000 mg/kg",0
same,No. Animals Dead,"rat; oral, 2500 mg/kg (highest dose)",2
same,liver weight increase consequent to CCl4,[2],can prevent the liver weight increase
same,liver protective effect,bromobenzene poisoning,"lower than that induced by the investigational compound, and statistically not significant"
same,deaths,mercuric chloride,10%
same,Color,[3]; [12],white
same,Weight Fin.,[3]; [12],98.3 mg
same,Weight Variations,[3]; [12],-5.4%
same,Color,"[3]; sample 2, dry, 3 hours",white
same,Weight Fin.,"[3]; sample 2, dry, 3 hours, listed as 2-thiopropionylglycine",93.0 mg
same,Color,[3]; [13],white
same,Weight Fin.,[3]; [13],94.8 mg
same,Weight Variations,[3]; [13],-5.67%
same,Color,"[3]; sample 4, dry, 8 hours",white
same,Weight Fin.,"[3]; sample 4, dry, 8 hours",95.7 mg
same,Weight Variations,"[3]; sample 4, dry, 8 hours",-5.53%
same,Weight Fin.,[3]; [14],198.9 mg
same,Weight Variations,[3]; [14],-2.83%
same,Color,"[3]; sample 6, wet",colorless
same,Color,"[3]; sample 7, wet",colorless
same,Color,"[3]; sample 8, wet",colorless
same,Color,"[3]; sample 9, wet",yellowish
same,Weight Fin.,[3]; [15],193.8 mg
same,Weight Variations,[3]; [15],-3.1%
same,melting point variation,[4]; after heating,marked decrease of the melting point in the case of the wet sample
same,Final m.p. wet conditions (Sample 10),[4]; after heating 8 hours wet and evaporation to dryness,86-88 °C
same,Final m.p. dry conditions (Sample 5),"[4]; after heating for 8 hours, dry",92-94 °C
same,Initial m.p.,[4]; before heating,93-95 °C
same,Content,physchem,101.43%
same,E at 232 nm,physchem; as such,0.329
same,remaining at 1.5 h,physchem; dry,101%
same,remaining at 3 h,physchem; dry,101%
same,remaining at 5.25 h,physchem; dry,99.5%
same,remaining at 8 h,physchem; dry,98.4%
same,E at 232 nm,"physchem; sample 1, dry",0.325
same,E at 232 nm,"physchem; sample 2, dry",0.324
same,E at 232 nm,"physchem; sample 3, dry",0.325
same,E at 232 nm,"physchem; sample 4, dry",0.324
same,E at 232 nm,"physchem; sample 6, wet",0.333
same,E at 232 nm,"physchem; sample 7, wet",0.325
same,E at 232 nm,"physchem; sample 8, wet",0.320
same,E at 232 nm,"physchem; sample 9, wet",0.300
same,Energy of activation of the decomposition reaction,[5]; dry,15.66 kcal/mol
same,Energy of activation of the decomposition reaction,[5]; wet,11.54 kcal/mol
same,appearance in water,[6],clear solution
same,No. Animals Dead,mouse [7]; 1500 mg/kg,0
same,No. Animals Dead,mouse [7]; 2000 mg/kg,1
same,No. Animals Dead,mouse [7]; 2500 mg/kg (highest dose),2
same,No. Animals Dead,mouse [8]; 500 mg/kg,0
same,No. Animals Dead,mouse [8]; 750 mg/kg,0
same,No. Animals Dead,mouse [8]; 1000 mg/kg,1
same,stability (known),[9],low stability
same,mortality,in vivo [10]; 1500 mg/kg,0%
same,mortality,in vivo [10]; 2000 mg/kg,10%
same,mortality,in vivo [10]; 2500 mg/kg,20%
same,mortality,in vivo [11]; 500 mg/kg,0%
same,mortality,in vivo [11]; 750 mg/kg,0%
same,mortality,in vivo [11]; 1000 mg/kg,10%
"CC(=O)N[C@@H](CS)C(=O)O [N-acetylcysteine, reference compound]",fit of cough on aerosol administration,elderly patients; in vivo,frequently happens
same,"decrease of the sputum, comparison of (I) and N-acetylcysteine",elderly patients; twenty control patients on N-acetylcysteine,overall comparable with those provided by the compound (I)
